Measurements from patent KR20150001353A, “Fms 키나아제 저해 활성을 갖는 피리미딘 유도체” (한미약품 주식회사, priority 2013, dated 2015).

Assays:
[1] = molecular target: T1, recombinant human FMS kinase (재조합 인간 FMS 키나아제) (Homo sapiens, UniProt P07333); experiment: FMS kinase inhibitory activity evaluation (Test Example 1; FRET, Z'-Lyte kinase assay-Tyr 1 peptide kit); type: biochemical; conditions: 0.3 µg/mL FMS, 150 μM ATP, room temperature, 1 h
T1 construct: purchased Invitrogen pv3249

[2] = test system: M-NFS-60 cell line (M-NFS-60 세포주); experiment: M-NFS-60 cell line evaluation (Test Example 2; MTT, CellTiter 96 Assay); type: cell-based; conditions: recombinant M-CSF 20 ng/mL, 5% FBS, compound 10 μM to 0.1 nM, 590 nm

T1 sequence (P07333 20-972): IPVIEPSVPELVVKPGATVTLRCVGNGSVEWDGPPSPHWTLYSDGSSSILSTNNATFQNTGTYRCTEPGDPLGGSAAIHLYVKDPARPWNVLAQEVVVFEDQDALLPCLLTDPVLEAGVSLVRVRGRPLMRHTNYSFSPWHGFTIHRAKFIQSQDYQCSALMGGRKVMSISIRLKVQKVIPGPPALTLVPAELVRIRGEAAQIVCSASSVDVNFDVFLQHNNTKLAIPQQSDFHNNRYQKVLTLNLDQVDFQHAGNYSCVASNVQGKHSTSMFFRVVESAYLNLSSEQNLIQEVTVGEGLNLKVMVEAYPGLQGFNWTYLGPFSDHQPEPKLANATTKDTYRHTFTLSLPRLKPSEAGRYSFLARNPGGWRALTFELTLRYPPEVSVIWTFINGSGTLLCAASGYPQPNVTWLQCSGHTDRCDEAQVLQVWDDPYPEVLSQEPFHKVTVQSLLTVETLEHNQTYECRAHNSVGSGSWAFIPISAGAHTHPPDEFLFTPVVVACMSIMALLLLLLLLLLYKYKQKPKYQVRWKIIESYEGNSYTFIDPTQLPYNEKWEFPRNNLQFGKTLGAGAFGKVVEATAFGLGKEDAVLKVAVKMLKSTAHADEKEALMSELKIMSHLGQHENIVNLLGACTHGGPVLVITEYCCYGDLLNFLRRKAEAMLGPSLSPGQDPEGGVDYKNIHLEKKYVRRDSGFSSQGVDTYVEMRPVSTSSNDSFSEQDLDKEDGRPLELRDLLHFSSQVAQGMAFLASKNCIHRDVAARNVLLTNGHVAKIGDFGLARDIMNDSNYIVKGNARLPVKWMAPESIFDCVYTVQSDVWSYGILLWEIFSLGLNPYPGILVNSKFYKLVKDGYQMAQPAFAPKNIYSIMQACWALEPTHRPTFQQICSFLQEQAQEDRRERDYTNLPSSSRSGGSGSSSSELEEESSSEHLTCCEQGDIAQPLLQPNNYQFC

Structure (SMILES): COc1ccc(CNc2cc(N(C)C(=O)Nc3cccc4c3c(C)nn4Cc3cccc(F)n3)ncn2)c(OC)c1 [실시예 9, 1-(6-(2,4-디메톡시벤질아미노)피리미딘-4-일)-3-(1-((6-플루오로피리딘-2-일)메틸)-3-메틸-1H-인다졸-4-일)-1-메틸우레아]
- IC50 [1]: 65 nM

Structure (SMILES): COc1cccc(Cn2nc(C)c3c(NC(=O)N(C)c4cc(N)ncn4)cccc32)c1 [실시예 18, 1-(6-아미노피리미딘-4-일)-3-(1-(3-메톡시벤질)-3-메틸-1H-인다졸-4-일)-1-메틸우레아]
- IC50 [1]: 14 nM
- IC50 [2]: 201 nM
